According to patent US20040018623A1, “Medium for preparing dedifferentiated cells” (priority 1999, published 2004):

Tests used:
isolated canine islets = test: Islet-cystic (duct epithelial) transformation / transdifferentiation of isolated islets; type: cell-based; conditions: for cystic transformation, % of control: at 72 hours, islets pre-incubated prior to embedding in collagen, control = DMEM/F12-CT group; for ductal transformation in suspension with soluble matrix protein: islets in suspension in DMEM/F12-CT supplemented with soluble protein (50 μg/ml)
[1] = target: integrins (on isolated canine islet cells) (dog); test: cell-based or functional assay

Molecule: fibronectin
- cystic transformation, % of control (isolated canine islets): 50 % of control
- ductal transformation in suspension with soluble matrix protein (isolated canine islets): failed to undergo ductal transformation

Molecule: GRGDSP [reference compound]
- cystic transformation, % of control (isolated canine islets): 57 % of control
- islet cell transdifferentiation after prior incubation of freshly isolated islets with peptide (isolated canine islets; prior incubation of islets with the peptide): partially blocked

Molecule: laminin
- cystic transformation, % of control (isolated canine islets): 50 % of control
- ductal transformation in suspension with soluble matrix protein (isolated canine islets): failed to undergo ductal transformation

Molecule: GRGESP [control peptide, reference compound]
- influence on the transformation process (isolated canine islets; islets pre-incubated with peptide (400 μg/ml) prior to embedding in collagen): little influence

B1: RGD-motif containing GRGDSP peptide (peptide)
peptide: GRGDSP
- islet-cystic transformation at 72 hours, percent of the control DMEM/F12-CT group [1]: 57 % of control
